One assay has as its target T1, Lp-PLA2 in human serum (Homo sapiens, UniProt Q13093).
T1 construct: from tissue
T1 sequence (Q13093 22-441): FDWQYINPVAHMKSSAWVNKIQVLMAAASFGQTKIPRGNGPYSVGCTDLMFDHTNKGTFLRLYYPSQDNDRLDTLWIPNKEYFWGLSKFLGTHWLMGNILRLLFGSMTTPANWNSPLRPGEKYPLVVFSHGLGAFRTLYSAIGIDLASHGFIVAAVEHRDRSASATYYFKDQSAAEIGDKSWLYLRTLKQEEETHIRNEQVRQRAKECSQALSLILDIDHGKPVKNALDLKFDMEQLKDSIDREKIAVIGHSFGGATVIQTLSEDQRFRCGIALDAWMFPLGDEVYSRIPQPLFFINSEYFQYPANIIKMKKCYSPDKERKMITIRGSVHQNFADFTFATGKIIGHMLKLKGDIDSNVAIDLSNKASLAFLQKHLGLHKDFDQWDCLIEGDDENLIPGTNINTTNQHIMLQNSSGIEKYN
The assay can be described thus: In vitro inhibitory activity towards the enzyme Lp-PLA2 in human serum, [3H]PAF substrate. As to conditions: 10 nM. In kind it is biochemical. In a few lines: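 Human plasma was preincubated with compound 10 min at 37 °C in 50 mM HEPES, 150 mM NaCl, pH 7.4. Reaction started with 20 nM [3H]PAF, run 10 min at 37 °C, then extracted with CHCl3/MeOH (2:1); radioactivity of the supernatant was counted.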

Another assay addresses T2, Lp-PLA2 in rabbit serum (Oryctolagus cuniculus, UniProt G1SE06).
T2 construct: from tissue; host or cells: rabbit serum
T2 sequence (G1SE06 22-423): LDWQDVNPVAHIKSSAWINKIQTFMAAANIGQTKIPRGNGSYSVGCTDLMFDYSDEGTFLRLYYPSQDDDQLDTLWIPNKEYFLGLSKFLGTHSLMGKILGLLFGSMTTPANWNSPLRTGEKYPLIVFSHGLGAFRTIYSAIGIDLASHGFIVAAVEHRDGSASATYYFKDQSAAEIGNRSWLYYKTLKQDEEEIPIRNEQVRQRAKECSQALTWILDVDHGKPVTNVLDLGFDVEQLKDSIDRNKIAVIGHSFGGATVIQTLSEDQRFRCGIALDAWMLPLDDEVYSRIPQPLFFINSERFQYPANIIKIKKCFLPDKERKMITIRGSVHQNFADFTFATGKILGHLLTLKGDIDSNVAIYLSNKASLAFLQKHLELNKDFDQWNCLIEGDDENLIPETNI
As to the kind of experiment: In vitro inhibitory activity towards the enzyme Lp-PLA2 in rabbit serum, [3H]PAF substrate. The class given is biochemical. Conditions: 100 nM.

The test system of the next assay is atherosclerotic plaque. Conditions: diabetic/hypercholesterolemic swine, Wilensky et al.; cited from earlier work.
[1] abbreviates: human serum, read-out: inhibition, %.
[2] abbreviates: read-out: inhibitory rate towards the human serum derived Lp-PLA2 enzyme.
[3] abbreviates: rabbit serum, read-out: inhibition, %.
Where [4] appears, read: read-out: inhibitory rate towards the rabbit serum derived Lp-PLA2 enzyme.

Molecules are shown by their SMILES. Like-named read-outs stand apart in the source and are kept apart here.

As for `C[N+](C)(CCO)Cc1nnc(Cn2c(SCc3ccc(F)cc3)nc(=O)c3c2CCC3)n1Cc1ccc(-c2ccc(C(F)(F)F)cc2)cc1` [Example 122, N-((5-((2-(4-fluorobenzylthio)-4-oxo-4,5,6,7-tetrahydro-1H-cyclopenta[d]pyrimidin-1-yl)methyl)-4-((4′-(trifluoromethyl)biphenyl-4-yl)methyl)-4H-1,2,4-triazol-3-yl)methyl)-2-hydroxy-N,N-dimethylethanaminium chloride], the inhibition at 0.01 µM at Lp-PLA2 in human serum (setting [1]) was 92%; on Lp-PLA2 in human serum (setting [2]), above 80%. Further, the inhibition at 0.1 µM at Lp-PLA2 in rabbit serum (setting [3]) is 95%; on Lp-PLA2 in rabbit serum (setting [4]), above 90%.
For the molecule `O=c1nc(SCc2ccc(F)cc2)n(Cc2nnc(COCCO)n2Cc2ccc(-c3ccc(C(F)(F)F)cc3)cc2)c2c1CCC2` [Example 123, 2-(4-fluorobenzylthio)-1-((5-((2-hydroxyethoxy)methyl)-4-((4′-(trifluoromethyl)biphenyl-4-yl)methyl)-4H-1,2,4-triazol-3-yl)methyl)-6,7-dihydro-1H-cyclopenta[d]pyrimidin-4(5H)-one], the inhibition at 0.01 µM at Lp-PLA2 in human serum (setting [1]) was 76%. On Lp-PLA2 in rabbit serum (setting [3]), the inhibition at 0.1 µM was 88%.
Taken in the same sequence, the figures for `CCN(CC)CCOCc1nnc(Cn2c(SCc3ccc(F)cc3)nc(=O)c3c2CCC3)n1Cc1ccc(-c2ccc(C(F)(F)F)cc2)cc1` [Example 125, 1-((5-((2-(diethylamino)ethoxy)methyl)-4-((4′-(trifluoromethyl)biphenyl-4-yl)methyl)-4H-1,2,4-triazol-3-yl)methyl)-2-(4-fluorobenzylthio)-6,7-dihydro-1H-cyclopenta[d]pyrimidin-4(5H)-one] were 76% and 92%.
For the molecule `CC(NCCN(C)C)c1nnc(Cn2c(SCc3ccc(F)cc3)nc(=O)c3c2CCC3)n1Cc1ccc(-c2ccc(C(F)(F)F)cc2)cc1` (stereo not shown) [Example 128, 1-((5-(1-(2-(dimethylamino)ethylamino)ethyl)-4-((4′-(trifluoromethyl)biphenyl-4-yl)methyl)-4H-1,2,4-triazol-3-yl)methyl)-2-(4-fluorobenzylthio)-6,7-dihydro-1H-cyclopenta[d]pyrimidin-4(5H)-one], the inhibition at 0.01 µM at Lp-PLA2 in human serum (setting [1]) was 90%; at Lp-PLA2 in human serum (setting [2]) it was above 80%. Also, the inhibition at 0.1 µM at Lp-PLA2 in rabbit serum (setting [3]) was 94%; at Lp-PLA2 in rabbit serum (setting [4]), above 90%.
With `CCN(CC)CCNC(C)c1nnc(Cn2c(SCc3ccc(F)cc3)nc(=O)c3c2CCC3)n1Cc1ccc(-c2ccc(C(F)(F)F)cc2)cc1` (stereo not shown) [Example 130, 1-((5-(1-(2-(diethylamino)ethylamino)ethyl)-4-((4′-(trifluoromethyl)biphenyl-4-yl)methyl)-4H-1,2,4-triazol-3-yl)methyl)-2-(4-fluorobenzylthio)-6,7-dihydro-1H-cyclopenta[d]pyrimidin-4(5H)-one], the inhibition at 0.01 µM at Lp-PLA2 in human serum (setting [1]) was 92%. In addition, the inhibition at 0.1 µM on Lp-PLA2 in rabbit serum (setting [3]) was 94%.
Taken in the same sequence, the figures for `CCN(CC)CCN(CC(=O)O)Cc1nnc(Cn2c(SCc3ccc(F)cc3)nc(=O)c3c2CCC3)n1Cc1ccc(-c2ccc(C(F)(F)F)cc2)cc1` [Example 135, 2-((2-(diethylamino)ethyl)((3-((2-(4-fluorobenzylthio)-4-oxo-4,5,6,7-tetrahydro-1H-cyclopenta[d]pyrimidin-1-yl)methyl)-4-((4′-(trifluoromethyl)biphenyl-4-yl)methyl)-4H-1,2,4-triazol-5-yl)methyl)amino)acetic acid] were 66% and 83%.
The corresponding values for `CCN(CC)Cc1onc(Cn2c(SCc3ccc(F)cc3)nc(=O)c3c2CCC3)c1Cc1ccc(-c2ccc(C(F)(F)F)cc2)cc1` [Example 157, 1-((5-((diethylamino)methyl)-4-((4′-(trifluoromethyl)biphenyl-4-yl)methyl)isoxazol-3-yl)methyl)-2-(4-fluorobenzylthio)-6,7-dihydro-1H-cyclopenta[d]pyrimidin-4(5H)-one] are 96% and 89%.
For `CN(C)CCN(C)Cc1onc(Cn2c(SCc3ccc(F)cc3)nc(=O)c3c2CCC3)c1Cc1ccc(-c2ccc(C(F)(F)F)cc2)cc1` [Example 158, 1-((5-(((2-(dimethylamino)ethyl)(methyl)amino)methyl)-4-((4′-(trifluoromethyl)biphenyl-4-yl)methyl)isoxazol-3-yl)methyl)-2-(4-fluorobenzylthio)-6,7-dihydro-1H-cyclopenta[d]pyrimidin-4(5H)-one], the values for the inhibition at 0.01 µM on Lp-PLA2 in human serum (setting [1]) and on Lp-PLA2 in human serum (setting [2]) were 98% and above 80%, respectively. For the same molecule, the figures for the inhibition at 0.1 µM at Lp-PLA2 in rabbit serum (setting [3]) and at Lp-PLA2 in rabbit serum (setting [4]) were 98% and above 90%, respectively.
In the case of `CCN(CC)CCN(C)Cc1onc(Cn2c(SCc3ccc(F)cc3)nc(=O)c3c2CCC3)c1Cc1ccc(-c2ccc(C(F)(F)F)cc2)cc1` [Example 159, 1-((5-(((2-(diethylamino)ethyl)(methyl)amino)methyl)-4-((4′-(trifluoromethyl)biphenyl-4-yl)methyl)isoxazol-3-yl)methyl)-2-(4-fluorobenzylthio)-6,7-dihydro-1H-cyclopenta[d]pyrimidin-4(5H)-one], the inhibition at 0.01 µM was 100% on Lp-PLA2 in human serum (setting [1]) and above 80% on Lp-PLA2 in human serum (setting [2]). The inhibition at 0.1 µM is 97% at Lp-PLA2 in rabbit serum (setting [3]) and above 90% on Lp-PLA2 in rabbit serum (setting [4]).
The corresponding values for `CN(CCN1CCCCC1)Cc1onc(Cn2c(SCc3ccc(F)cc3)nc(=O)c3c2CCC3)c1Cc1ccc(-c2ccc(C(F)(F)F)cc2)cc1` [Example 161, 2-(4-fluorobenzylthio)-1-((5-((methyl(2-(piperidin-1-yl)ethyl)amino)methyl)-4-((4′-(trifluoromethyl)biphenyl-4-yl)methyl)isoxazol-3-yl)methyl)-6,7-dihydro-1H-cyclopenta[d]pyrimidin-4(5H)-one] are 100%, above 80%, 99% and above 90%.
For the molecule `CCN(CC)CCN(Cc1ccc(-c2ccc(C(F)(F)F)cc2)cc1)C(=O)Cn1c(SCc2ccc(F)cc2)nc(=O)c2c1CCC2` [darapladib, Darapladib], the atherosclerotic plaque progression entry in the assay with atherosclerotic plaque is given as “remarkably reduced the atherosclerotic plaque progression”.

Source of the values: US20140171431A1, “AZOLE HETEROCYCLIC COMPOUND, PREPARATION METHOD, PHARMACEUTICAL COMPOSITION AND USE” (priority 2011, published 2014).
